Reference: patent publication US20130123135A1, “Methods To Identify Modulators of TAS2R48 Receptors” (priority 2010, published 2013)
Like-named read-outs stand apart in the source and are kept apart here.

Test system: Sham transfected HEK293T/G16gust44 cells
Description: The above procedure was also carried out for HEK293T/G16gust44 cells, formed as described in WO 2004/055048 with the exception that no DNA was added during the process. These cells are termed Sham transfected cells.
On day 0, the HEK293T cells formed as described in example 2, were seeded in antibiotic-free growth medium (standard DMEM with 10% (v/v) heat-inactivated fetal bovine serum, 2 mM L-glutamine […], 100 units/ml penicillin, and 100 [g/ml streptomycin) into black wall/clear bottom 96-well plates, coated with poly(ethylenimine) (0.005% v/v) at a concentration of 15,000 cells per well and incubated for 48 hours in humidified atmosphere (37° C., 5% CO2).
Prior to performing the assay, the growth medium was discarded and the cells were left in a humidified atmosphere (37° C., 5% CO2) for 1 hour with 50 μl of loading buffer consisting of 1.5 μM Fluo-4 AM and […] probenicid (Sigma-Aldrich, St. Louis, Mo., US) in DMEM.
Following this the 96-well plate was washed 5 times with 100 μl of assay buffer (130 mM NaCl, 5 mM KCl, 10 mM 4-(2-hydroxyethyl)-1-piperazineethanesulfonic acid (HEPES), 2 mM CaCl2, and 5 mM dextrose, pH 7.4) per well, using an automated plate washer (BioTek).
The plate was then further incubated for 30 minutes at room temperature in the dark to allow for complete de-esterification of the Fluo-4. Afterwards the plate was washed 5 times with 100 μl of assay buffer per well, and reconstituted with 100 μl of assay buffer per well.
Cyclamate solutions ranging in concentration from 250 mM to 800 mM were prepared in assay buffer.
To test receptor activation 20 μl of one of these cyclamate test solutions was added to the assay buffer of at least one well of the 96 well plate. This step was repeated until all cyclamate solutions of differing concentrations had been added to at least one well. Care was taken to ensure that only one cyclamate solution was added per well. The resulting cyclamate concentrations in the well plates ranged in concentration from 25 mM to 80 mM (This is due to the dilution of the cyclamate solution in the assay buffer present in the well).
For assay reading, the plate was placed in a Fluorometric Imaging Plate Reader (FLIPR) (FLIPR-TETRA™, Molecular Devices, Sunnyvale, Calif., US).
For each well of the plate fluorescence was continuously monitored for 20 seconds to give a signal baseline (averaged to give F0) prior to cyclamate addition and for 120 seconds after cyclamate addition. The change in signal divided by F0 gives ΔF/F0 indicated in the table, with ΔF being the maximum signal occurring within the 120 seconds minus the minimum signal (occurring within the 120 seconds after cyclamate addition.
As a control the above procedure was also carried out for the sham transfected cells formed as described in example 2.

Compound: O=S(=O)(O)NC1CCCCC1 [Cyclamate, cyclamate]
- Cyclamate Average ΔF/F0, Sham Transfected (cyclamate 25 mM in well): 0.186
- Cyclamate Average ΔF/F0, Sham Transfected (cyclamate 30 mM in well): 0.182
- Cyclamate Average ΔF/F0, Sham Transfected (cyclamate 35 mM in well): 0.198
- Cyclamate Average ΔF/F0, Sham Transfected (cyclamate 40 mM in well): 0.204
- Cyclamate Average ΔF/F0, Sham Transfected (cyclamate 45 mM in well): 0.194
- Cyclamate Average ΔF/F0, Sham Transfected (cyclamate 50 mM in well): 0.2
- Cyclamate Average ΔF/F0, Sham Transfected (cyclamate 55 mM in well): 0.182
- Cyclamate Average ΔF/F0, Sham Transfected (cyclamate 60 mM in well): 0.16
- Cyclamate Average ΔF/F0, Sham Transfected (cyclamate 65 mM in well): 0.17
- Cyclamate Average ΔF/F0, Sham Transfected (cyclamate 70 mM in well): 0.14
- Cyclamate Average ΔF/F0, Sham Transfected (cyclamate 75 mM in well): 0.11
- Cyclamate Average ΔF/F0, Sham Transfected (cyclamate 80 mM in well): 0.178
